Measured values taken from PubChem BioAssay (NCI).
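Interpolation was linear, between the two tested concentrations surrounding the appropriate level; five concentrations were tested over 48 hours in 96-well plates. Here, GI50 denotes the concentration required for 50% inhibition of growth. TGI denotes the concentration required for complete inhibition of growth.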

How the values were obtained:
Experiment in all cases: NCI tumour cell line growth inhibition, 48 h
UACC-62 melanoma = test system: UACC-62 melanoma
OVCAR-4 ovarian = test system: OVCAR-4 ovarian
HL-60(TB) leukemia = test system: HL-60(TB) leukemia
HT29 colon = test system: HT29 colon
EKVX NSCLC = test system: EKVX NSCLC
BT-549 breast = test system: BT-549 breast
OVCAR-5 ovarian = test system: OVCAR-5 ovarian
M14 melanoma = test system: M14 melanoma
CAKI-1 renal = test system: CAKI-1 renal
SK-MEL-5 melanoma = test system: SK-MEL-5 melanoma

| Structure (SMILES) | GI50 (UACC-62 melanoma) | TGI (UACC-62 melanoma) | GI50 (OVCAR-4 ovarian) | TGI (OVCAR-4 ovarian) | GI50 (HL-60(TB) leukemia) | TGI (HL-60(TB) leukemia) | GI50 (HT29 colon) | TGI (HT29 colon) | GI50 (EKVX NSCLC) | TGI (EKVX NSCLC) | GI50 (BT-549 breast) | TGI (BT-549 breast) | GI50 (OVCAR-5 ovarian) | TGI (OVCAR-5 ovarian) | GI50 (M14 melanoma) | TGI (M14 melanoma) | GI50 (CAKI-1 renal) | TGI (CAKI-1 renal) | GI50 (SK-MEL-5 melanoma) | TGI (SK-MEL-5 melanoma) |
| --- | --- | --- | --- | --- | --- | --- | --- | --- | --- | --- | --- | --- | --- | --- | --- | --- | --- | --- | --- | --- |
| COc1cc(N2CCC(N3CCN(C)CC3)CC2)ccc1Nc1ncc(Cl)c(Nc2ccccc2S(=O)(=O)C(C)C)n1 | 1.18 µM | 3.39 µM | 0.341 µM | 2.17 µM | 0.327 µM | 1.4 µM | 0.0612 µM | 0.617 µM | 0.489 µM | 11.5 µM | 2.09 µM | 5.6 µM | 0.659 µM | 5.48 µM | 1.16 µM | 2.51 µM | 0.65 µM | 6.51 µM | 1.37 µM | 2.67 µM |
| Cc1ccc2c(c1)C=CC(C#N)N2C(=O)Oc1ccccc1 (stereo not drawn) | – | > 100 µM | – | 70.7 µM | – | 50.5 µM | – | 35.3 µM | – | 43 µM | – | 48.2 µM | – | > 100 µM | – | > 100 µM | – | > 100 µM | – | > 100 µM |
| C=CCSSc1ncnc2c1ncn2C1OC(CO)C(O)C1O (stereo not drawn) | 1.64 µM | > 100 µM | 0.782 µM | > 100 µM | 3.27 µM | 19.9 µM | 2.7 µM | > 93.6 µM | 69.3 µM | > 100 µM | 3.67 µM | > 100 µM | 4.29 µM | > 100 µM | 0.536 µM | > 100 µM | 0.799 µM | > 68.8 µM | 3.43 µM | > 50.7 µM |
| Nc1nc(-c2ccccc2)cc(-c2ccc(Cl)cc2)c1-c1nc2ccccc2o1 | 16.6 µM | 30.6 µM | 13.5 µM | 28 µM | 4.42 µM | 17 µM | 12 µM | 31.7 µM | 14 µM | 27.7 µM | 15.5 µM | 29.7 µM | 21.8 µM | 42.1 µM | 14.5 µM | 35.4 µM | 22.9 µM | 38.6 µM | 12.8 µM | 25.4 µM |
| CC(=O)[O][Bi]([c]1ccccc1)[c]1ccccc1 | 11.6 µM | 24.1 µM | 13.7 µM | 27 µM | 3.54 µM | 23.5 µM | 18.1 µM | 32.3 µM | 19.4 µM | 34.5 µM | 2.94 µM | 9.32 µM | 11.8 µM | 26.3 µM | 11.4 µM | 24.5 µM | 11.1 µM | 26.2 µM | 12.8 µM | 25.9 µM |
| CC[CH2][Sn]([CH2]CC)([O]C(=O)Cc1ccc(F)cc1)[O][Sn]([CH2]CC)([CH2]CC)[O]C(=O)Cc1ccc(F)cc1 | 0.172 µM | 0.524 µM | 0.276 µM | 1.23 µM | 0.0888 µM | – | 0.728 µM | 2.02 µM | 0.569 µM | 1.99 µM | 0.256 µM | 0.92 µM | 1.44 µM | 2.84 µM | 0.237 µM | 0.622 µM | 0.11 µM | 0.481 µM | 0.472 µM | 1.47 µM |
| COc1ccc(C2CC(=O)c3c(O)c(OC)c(OC)c(OC)c3O2)cc1O (stereo not drawn) | 0.504 µM | > 73.7 µM | 3.78 µM | > 100 µM | 0.0263 µM | – | 3.4 µM | > 64.5 µM | 0.53 µM | > 100 µM | 0.0745 µM | 31.2 µM | > 100 µM | > 100 µM | 0.0515 µM | > 100 µM | 0.43 µM | > 100 µM | 0.219 µM | 6.87 µM |
| Nc1c2ccccc2nc2ccccc12 (tested in a mixture with another compound) | 1.62 µM | 3.74 µM | 1.84 µM | 6.9 µM | 3.24 µM | 8.04 µM | 1.08 µM | 3.48 µM | 2.01 µM | 7.65 µM | 4.42 µM | 17.6 µM | 2.96 µM | 13.4 µM | 1.87 µM | 3.92 µM | 1.83 µM | 5.11 µM | 1.6 µM | 3.01 µM |
| C=C(CN(C)C)C(=O)c1ccc(Oc2ccccc2)cc1 | – | 13 µM | – | 20.9 µM | – | 3.46 µM | – | 34.3 µM | – | 44 µM | – | 12.9 µM | – | 18.6 µM | – | 4.02 µM | – | 6.69 µM | – | 19.8 µM |
